Assay results: US20230085307A1, “PYRIDAZINONE COMPOUND AND HERBICIDE” (NISSAN CHEMICAL CORPORATION, priority 2019, published 2023)

What was measured:
Japanese bulrush = assay: Test Example 2: herbicidal activity, application during weed generation under submerged conditions (Table 17, symbol B); assay type: in vivo, Japanese bulrush (Schoenoplectus juncoides); conditions: AAH 320 g/ha; application during weed generation, submerged conditions
Summary of the method: (§1)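 Wagner pot, alluvial soil, 4 cm flood; mixed sowing of all species; greenhouse 25° C.–30° C. Emulsifiable formulation, water-diluted to predetermined dose, applied to paddy water at 1–2 leaf stage. Effect rated at 3 wk using the earlier test's scoring criteria.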

Italian ryegrass [1] = assay: Test Example 5: herbicidal effect by foliage application, plastic box (Table 20, symbol K); assay type: in vivo, Italian ryegrass (Lolium multiflorum); conditions: foliage application; for effect on Italian ryegrass (K): 3 weeks after application
Summary of the method: (§2)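 Sow seeds spot-wise in sterilized diluvial soil; cover with ~1.5 cm soil. Grow 14 days in greenhouse, 25° C. to 30° C. Spray foliage with emulsion diluted to predetermined amount. Rate effect after 3 weeks.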

late watergrass [2] = assay: Test Example 1: herbicidal activity, application before weed generation under submerged conditions (Table 16, symbol A); assay type: in vivo, late watergrass (Echinochloa oryzicola); conditions: 320 g/ha applied herbicide
Summary of the method: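 Emulsion formulation, water-diluted to set dose, was put onto the flooded surface (4 cm depth, alluvial soil) the same day weeds were sown and 2.5-leaf rice transplanted. After 3 weeks at 25-30 °C under glass, each species was rated 0 (≤5% kill) to 5 (≥90% kill).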

Italian ryegrass [3] = assay: Test Example 4: herbicidal effect by soil treatment (Table 19, symbol K); assay type: in vivo, Italian ryegrass (Lolium multiflorum); conditions: for K: Italian ryegrass, herbicidal effect rating: AAH 320 g/ha; for herbicidal effect rating, K: Italian ryegrass: 320 g/ha
Summary of the method: (§3)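 Applied as a water-diluted emulsion, the compound was sprayed onto soil covering newly sown seeds. Evaluation came three weeks after application, in a greenhouse held at 25° C. to 30° C.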

barnyard grass = assay: Test Example 3: herbicidal effect by foliage application, Wagner pot (Table 18, symbol H); assay type: in vivo, barnyard grass (Echinochloa crus-galli); conditions: for herbicidal effect on H (barnyard grass), rating 0-5: 320 g/ha
Summary of the method: (§4)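 Plants were sown in alluvial soil held under 0.1–0.5 cm standing water and grown 14 days in a greenhouse at 25–30 °C. An emulsifiable formulation, water-diluted to the set dose, was then sprayed onto the foliage, and effects were scored three weeks later using previously defined criteria.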

southern crabgrass [4] = assay: Test Example 5: herbicidal effect by foliage application, plastic box (Table 20, symbol F); assay type: in vivo, southern crabgrass (Digitaria ciliaris); conditions: foliage application; for effect on southern crabgrass (F): 3 weeks after application
Summary of the method: as §2

Chinese sprangletop = assay: Test Example 3: herbicidal effect by foliage application, Wagner pot (Table 18, symbol D); assay type: in vivo, chinese sprangletop (Leptochloa chinensis); conditions: for herbicidal effect on D (Chinese sprangletop), rating 0-5: 320 g/ha
Summary of the method: as §4

windgrass [5] = assay: Test Example 5: herbicidal effect by foliage application, plastic box (Table 20, symbol L); assay type: in vivo, windgrass (Apera spica-venti); conditions: foliage application; for effect on windgrass (L): 3 weeks after application
Summary of the method: as §2

southern crabgrass [6] = assay: Test Example 4: herbicidal effect by soil treatment (Table 19, symbol F); assay type: in vivo, southern crabgrass (Digitaria ciliaris); conditions: for F: southern crabgrass, herbicidal effect rating: AAH 320 g/ha; for herbicidal effect rating, F: southern crabgrass: 320 g/ha
Summary of the method: as §3

persian speedwell [7] = assay: Test Example 4: herbicidal effect by soil treatment (Table 19, symbol R); assay type: in vivo, Persian speedwell (Veronica persica); conditions: for R: persian speedwell, herbicidal effect rating: AAH 320 g/ha
Summary of the method: as §3

late watergrass [8] = assay: Test Example 2: herbicidal activity, application during weed generation under submerged conditions (Table 17, symbol A); assay type: in vivo, late watergrass (Echinochloa oryzicola); conditions: AAH 320 g/ha; application during weed generation, submerged conditions
Summary of the method: as §1

lambsquarters [9] = assay: Test Example 4: herbicidal effect by soil treatment (Table 19, symbol O); assay type: in vivo, lambsquarters (Chenopodium album); conditions: for O: lambsquarters, herbicidal effect rating: AAH 320 g/ha; for herbicidal effect rating, O: lambsquarters: 320 g/ha
Summary of the method: as §3

lambsquarters [10] = assay: Test Example 5: herbicidal effect by foliage application, plastic box (Table 20, symbol O); assay type: in vivo, lambsquarters (Chenopodium album); conditions: foliage application; for effect on lambsquarters (O): 3 weeks after application
Summary of the method: as §2

velvetleaf = assay: Test Example 4: herbicidal effect by soil treatment (Table 19, symbol M); assay type: in vivo, velvetleaf (Abutilon theophrasti); conditions: for M: velvetleaf, herbicidal effect rating: AAH 320 g/ha; for herbicidal effect rating, M: velvetleaf: 320 g/ha
Summary of the method: as §3

blackgrass = assay: Test Example 4: herbicidal effect by soil treatment (Table 19, symbol J); assay type: in vivo, blackgrass (Alopecurus myosuroides); conditions: for J: blackgrass, herbicidal effect rating: AAH 320 g/ha; for herbicidal effect rating, J: blackgrass: 320 g/ha
Summary of the method: as §3

persian speedwell [11] = assay: Test Example 5: herbicidal effect by foliage application, plastic box (Table 20, symbol R); assay type: in vivo, Persian speedwell (Veronica persica); conditions: foliage application; for effect on persian speedwell (R): 3 weeks after application
Summary of the method: as §2

windgrass [12] = assay: Test Example 4: herbicidal effect by soil treatment (Table 19, symbol L); assay type: in vivo, windgrass (Apera spica-venti); conditions: 320 g/ha
Summary of the method: as §3

[13] = AAH 320 g/ha, evaluated three weeks after application
[14] = amount of applied herbicide 320 g/ha
[15] = AAH 320 g/ha, three weeks after application
[16] = 320 g/ha, evaluated three weeks after application

SMILES	herbicidal effect rating, B: Japanese bulrush (Japanese bulrush)	Herbicidal effect on A: late watergrass (grade 0-5) (late watergrass [2])	herbicidal effect rating, A: late watergrass (late watergrass [8])	K: Italian ryegrass, herbicidal effect rating (Italian ryegrass [3])	herbicidal effect on H (barnyard grass), rating 0-5 (barnyard grass)	herbicidal effect on D (Chinese sprangletop), rating 0-5 (Chinese sprangletop)	F: southern crabgrass, herbicidal effect rating (southern crabgrass [6])	R: persian speedwell, herbicidal effect rating (persian speedwell [7])	O: lambsquarters, herbicidal effect rating (lambsquarters [9])	M: velvetleaf, herbicidal effect rating (velvetleaf)	J: blackgrass, herbicidal effect rating (blackgrass)	effect on Italian ryegrass (K) (Italian ryegrass [1]; 320 g/ha)	effect on southern crabgrass (F) (southern crabgrass [4]; 320 g/ha)	effect on windgrass (L) (windgrass [5]; 320 g/ha)	effect on lambsquarters (O) (lambsquarters [10]; 320 g/ha)	effect on persian speedwell (R) (persian speedwell [11]; 320 g/ha)	herbicidal effect rating, K: Italian ryegrass (Italian ryegrass [3])	herbicidal effect rating, F: southern crabgrass (southern crabgrass [6])	herbicidal effect rating, O: lambsquarters (lambsquarters [9])	herbicidal effect rating, M: velvetleaf (velvetleaf)	further results
Cc1nn(C)c(=O)c(-c2c(-c3ccc(OC(F)F)cc3)sc3ccc(F)cc23)c1OC(=O)c1cccs1 [2-288]	3 (Herbicidal rate of 40% or more and less than 70%)	5 (Herbicidal rate of 90% or more (almost completely withered))	3 (Herbicidal rate of 40% or more and less than 70%)	–	–	–	–	–	–	–	–	–	–	–	–	–	–	–	–	–	K: Italian ryegrass, herbicidal effect (criteria 0-5) (Italian ryegrass [1]; [13]): 5 (Herbicidal rate of 90% or more (almost completely withered)); herbicidal effect on K: Italian ryegrass (Italian ryegrass [3]; [14]): 4 (Herbicidal rate of 70% or more and less than 90%); herbicidal effect on H: barnyard grass (barnyard grass; [14]): 5 (Herbicidal rate of 90% or more (almost completely withered)); F: southern crabgrass, herbicidal effect (criteria 0-5) (southern crabgrass [4]; [13]): 2 (Herbicidal rate of 20% or more and less than 40%); herbicidal effect on D: Chinese sprangletop (Chinese sprangletop; [14]): 4 (Herbicidal rate of 70% or more and less than 90%); L: windgrass, herbicidal effect (criteria 0-5) (windgrass [5]; [13]): 3 (Herbicidal rate of 40% or more and less than 70%); herbicidal effect on F: southern crabgrass (southern crabgrass [6]; [14]): 3 (Herbicidal rate of 40% or more and less than 70%); herbicidal effect on R: persian speedwell (persian speedwell [7]; [14]): 5 (Herbicidal rate of 90% or more (almost completely withered)); herbicidal effect on O: lambsquarters (lambsquarters [9]; [14]): 4 (Herbicidal rate of 70% or more and less than 90%); O: lambsquarters, herbicidal effect (criteria 0-5) (lambsquarters [10]; [13]): 5 (Herbicidal rate of 90% or more (almost completely withered)); herbicidal effect on M: velvetleaf (velvetleaf; [14]): 3 (Herbicidal rate of 40% or more and less than 70%); herbicidal effect on J: blackgrass (blackgrass; [14]): 0 (Herbicidal rate of 5% or less (almost no effect)); R: persian speedwell, herbicidal effect (criteria 0-5) (persian speedwell [11]; [13]): 5 (Herbicidal rate of 90% or more (almost completely withered))
Cc1nn(C)c(=O)c(-c2c(-c3ccc(OCC(F)(F)F)cc3)sc3ccccc23)c1O [1-140]	3 (Herbicidal rate of 40% or more and less than 70%)	3 (Herbicidal rate of 40% or more and less than 70%)	3 (Herbicidal rate of 40% or more and less than 70%)	5 (Herbicidal rate of 90% or more (almost completely withered))	5 (Herbicidal rate of 90% or more (almost completely withered))	3 (Herbicidal rate of 40% or more and less than 70%)	5 (Herbicidal rate of 90% or more (almost completely withered))	5 (Herbicidal rate of 90% or more (almost completely withered))	5 (Herbicidal rate of 90% or more (almost completely withered))	5 (Herbicidal rate of 90% or more (almost completely withered))	0 (Herbicidal rate of 5% or less (almost no effect))	–	–	–	–	–	–	–	–	–	K: Italian ryegrass, herbicidal effect (Italian ryegrass [1]; [15]): 5 (Herbicidal rate of 90% or more (almost completely withered)); F: southern crabgrass, herbicidal effect (southern crabgrass [4]; [15]): 4 (Herbicidal rate of 70% or more and less than 90%); L: windgrass, herbicidal effect (windgrass [5]; [15]): 3 (Herbicidal rate of 40% or more and less than 70%); O: lambsquarters, herbicidal effect (lambsquarters [10]; [15]): 5 (Herbicidal rate of 90% or more (almost completely withered)); R: persian speedwell, herbicidal effect (persian speedwell [11]; [15]): 5 (Herbicidal rate of 90% or more (almost completely withered))
Cc1nn(C)c(=O)c(-c2c(-c3ccc(OC(F)F)cc3)sc3ccccc23)c1O [1-201]	3 (Herbicidal rate of 40% or more and less than 70%)	3 (Herbicidal rate of 40% or more and less than 70%)	0 (Herbicidal rate of 5% or less (almost no effect))	4 (Herbicidal rate of 70% or more and less than 90%)	5 (Herbicidal rate of 90% or more (almost completely withered))	4 (Herbicidal rate of 70% or more and less than 90%)	2 (Herbicidal rate of 20% or more and less than 40%)	5 (Herbicidal rate of 90% or more (almost completely withered))	5 (Herbicidal rate of 90% or more (almost completely withered))	3 (Herbicidal rate of 40% or more and less than 70%)	0 (Herbicidal rate of 5% or less (almost no effect))	5 (Herbicidal rate of 90% or more (almost completely withered))	0 (Herbicidal rate of 5% or less (almost no effect))	4 (Herbicidal rate of 70% or more and less than 90%)	5 (Herbicidal rate of 90% or more (almost completely withered))	5 (Herbicidal rate of 90% or more (almost completely withered))	–	–	–	–	–
CCCC(=O)Oc1c(C)nn(C)c(=O)c1-c1c(-c2ccc(C(C)=O)cc2)sc2ccc(F)cc12 [2-078]	4 (Herbicidal rate of 70% or more and less than 90%)	5 (Herbicidal rate of 90% or more (almost completely withered))	3 (Herbicidal rate of 40% or more and less than 70%)	–	3 (Herbicidal rate of 40% or more and less than 70%)	5 (Herbicidal rate of 90% or more (almost completely withered))	–	–	–	–	–	–	–	–	–	–	4 (Herbicidal rate of 70% or more and less than 90%)	0 (Herbicidal rate of 5% or less (almost no effect))	4 (Herbicidal rate of 70% or more and less than 90%)	3 (Herbicidal rate of 40% or more and less than 70%)	herbicidal effect on K: Italian ryegrass (Italian ryegrass [1]; [16]): 5 (Herbicidal rate of 90% or more (almost completely withered)); herbicidal effect on F: southern crabgrass (southern crabgrass [4]; [16]): 0 (Herbicidal rate of 5% or less (almost no effect)); herbicidal effect on L: windgrass (windgrass [5]; [16]): 5 (Herbicidal rate of 90% or more (almost completely withered)); herbicidal effect rating, R: persian speedwell (persian speedwell [7]; 320 g/ha): 5 (Herbicidal rate of 90% or more (almost completely withered)); herbicidal effect on O: lambsquarters (lambsquarters [10]; [16]): 4 (Herbicidal rate of 70% or more and less than 90%); herbicidal effect rating, J: blackgrass (blackgrass): 1 (Herbicidal rate of 5% or more and less than 20%); herbicidal effect on R: persian speedwell (persian speedwell [11]; [16]): 5 (Herbicidal rate of 90% or more (almost completely withered))
Cc1nn(C)c(=O)c(-c2c(-c3ccccc3OC(F)(F)F)sc3ccc(F)cc23)c1O [2-043]	2 (Herbicidal rate of 20% or more and less than 40%)	0 (Herbicidal rate of 5% or less (almost no effect))	0 (Herbicidal rate of 5% or less (almost no effect))	–	5 (Herbicidal rate of 90% or more (almost completely withered))	3 (Herbicidal rate of 40% or more and less than 70%)	–	–	–	–	–	0 (Herbicidal rate of 5% or less (almost no effect))	4 (Herbicidal rate of 70% or more and less than 90%)	3 (Herbicidal rate of 40% or more and less than 70%)	4 (Herbicidal rate of 70% or more and less than 90%)	5 (Herbicidal rate of 90% or more (almost completely withered))	0 (Herbicidal rate of 5% or less (almost no effect))	5 (Herbicidal rate of 90% or more (almost completely withered))	5 (Herbicidal rate of 90% or more (almost completely withered))	3 (Herbicidal rate of 40% or more and less than 70%)	herbicidal effect rating, L: windgrass (windgrass [12]): 0 (Herbicidal rate of 5% or less (almost no effect)); herbicidal effect rating, J: blackgrass (blackgrass): 0 (Herbicidal rate of 5% or less (almost no effect))
